Reference: patent US20250009742A1 (priority 2021, published 2025)

Columns and labels:
[1] = system: intracellular HBV DNA; assay: Real-time PCR for intracellular HBV DNA in HepAD38 cells; assay type: cell-based; settings: Hepatitis B virus, HePAD38, 65 h, 65 hours treatment
[2] = molecular target: Protein (Hepatitis B virus genotype D subtype ayw, UniProt P03146); assay: Protein inhibition rate / EC50 (Table 1, no method described); assay type: biochemical; settings: for inhibition at 3 µM: @3 μM (footnote *)
[3] = Cell viability assay (EZ-Cytox), cytotoxicity; assay type: cell-based; settings: human, HepAD38 cells; for viability at 65 h, 100 µM: read-out: Cytotoxicity % Livability (@100 μM)
Procedure: HepAD38 cells were cultured for 2 days in Dulbecco's Modified Eagle's medium (Welgene, LM001-05) supplemented with 10% FBS without tetracycline. […] After 65 hours of treatment, viability was measured using EZ-Cytox cell viability assay kit (Daeil Lab Service) according to the manufacturer's instructions. The absorbance was measured at 450 nm using a spectrophotometer (Spark, Tecan).

Chain of Protein (P03146 whole entry): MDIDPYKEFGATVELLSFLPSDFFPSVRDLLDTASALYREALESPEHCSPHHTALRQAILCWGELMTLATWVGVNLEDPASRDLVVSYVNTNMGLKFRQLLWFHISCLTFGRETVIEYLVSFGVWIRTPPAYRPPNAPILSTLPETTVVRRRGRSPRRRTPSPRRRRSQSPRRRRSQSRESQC

| Structure (SMILES) | IC50 [1] [µM] | EC50 [2] [µM] | inhibition at 30 µM [2] [%] | CC50 at 65 h [3] [µM] | viability at 65 h, 100 µM [3] [%] | inhibition at 3 µM [2] [%] |
| --- | --- | --- | --- | --- | --- | --- |
| COc1ccc(N(Cc2n[nH]c3c2COCC3)C(=O)Nc2ccc(F)c(Cl)c2)cc1 [Example 38, 3-(3-chloro-4-fluorophenyl)-1-(4-methoxyphenyl)-1-((1,4,6,7-tetrahydropyrano[4,3-c]pyrazol-3-yl)methyl)urea] | 0.018 | 1.6 | 80 | > 100 | 104 |  |
| COc1ccc(N(Cc2n[nH]c3c2CS(=O)(=O)CC3)C(=O)Nc2ccc(F)c(Cl)c2)cn1 [Example 49, 3-(3-chloro-4-fluorophenyl)-1-((5,5-dioxido-1,4,6,7-tetrahydrothiopyrano[4,3-c]pyrazol-3-yl)methyl)-1-(6-methoxypyridin-3-yl)urea] | > 1.1 |  | 72 | > 100 |  |  |
| COc1ccc(N(Cc2n[nH]cc2C)C(=O)Nc2ccc(F)c(Cl)c2)cn1 [Example 56, 3-(3-chloro-4-fluorophenyl)-1-(6-methoxypyridin-3-yl)-1-((4-methyl-1H-pyrazol-3-yl)methyl)urea] | 0.4 | 6.6 | 86.4 | > 100 | 98.2 |  |
| COc1ccc(N(Cc2n[nH]c3c2CCC3)C(=O)Nc2ccc(F)c(Cl)c2)cn1 [Example 41, 3-(3-chloro-4-fluorophenyl)-1-(6-methoxypyridin-3-yl)-1-((1,4,5,6-tetrahydrocyclopenta[c]pyrazol-3-yl)methyl)urea] | 0.018 | 2.6 |  | > 100 | 97.8 | 59 |
| O=C(O)c1ccc(N(Cc2n[nH]c3c2CCCC3)C(=O)Nc2ccc(F)c(Cl)c2)cc1 [Example 131, 4-(3-(3-chloro-4-fluorophenyl)-1-((4,5,6,7-tetrahydro-1H-indazol-3-yl)methyl)ureido)benzoic acid] | > 1.1 | 3.8 | 94.7 | > 100 | 100 |  |
| COc1ccc(N(Cc2cc(C(C)C)[nH]n2)C(=O)Nc2ccc(F)c(Cl)c2)cn1 [Example 58, 3-(3-chloro-4-fluorophenyl)-1-((5-isopropyl-1H-pyrazol-3-yl)methyl)-1-(6-methoxypyridin-3-yl)urea] | 0.16 | 5 | 93.1 | > 100 | 92.7 |  |
| COc1ccc(N(Cc2n[nH]c3c2CCCO3)C(=O)Nc2ccc(F)c(Cl)c2)cn1 [Example 63, 3-(3-chloro-4-fluorophenyl)-1-(6-methoxypyridin-3-yl)-1-((1,4,5,6-tetrahydropyrano[2,3-c]pyrazol-3-yl)methyl)urea] | 0.014 | 2.6 | 90.5 | > 100 | 94.5 |  |
| COc1ccc(N(Cc2n[nH]c3c2CCCC3)C(=O)Nc2ccc(F)c(Cl)c2)cn1 [Example 42, 3-(3-chloro-4-fluorophenyl)-1-(6-methoxypyridin-3-yl)-1-((4,5,6,7-tetrahydro-1H-indazol-3-yl)methyl)urea] | 0.037 | 4.3 |  | > 100 | 99.5 | 13 |
| COc1ccc(N(Cc2n[nH]c(C)c2C)C(=O)Nc2ccc(F)c(Cl)c2)cn1 [Example 57, 3-(3-chloro-4-fluorophenyl)-1-((4,5-dimethyl-1H-pyrazol-3-yl)methyl)-1-(6-methoxypyridin-3-yl)urea] | 0.023 | 2 | 96.2 | > 100 | 93.2 |  |
| COc1ccc(N(Cc2n[nH]c3c2CC(C)(C)CC3)C(=O)Nc2ccc(F)c(Cl)c2)cn1 [Example 47, 3-(3-chloro-4-fluorophenyl)-1-((5,5-dimethyl-4,5,6,7-tetrahydro-1H-indazol-3-yl)methyl)-1-(6-methoxypyridin-3-yl)urea] | 0.99 | 9.6 | 95.3 | > 100 | 50.7 |  |
| COc1ccc(N(Cc2n[nH]c3c2C2CCC3C2)C(=O)Nc2ccc(F)c(Cl)c2)cn1 (stereo not shown) [Example 51, 3-(3-chloro-4-fluorophenyl)-1-(6-methoxypyridin-3-yl)-1-((4,5,6,7-tetrahydro-1H-4,7-methanoindazol-3-yl)methyl)urea] | 0.035 | 3.4 | 87.1 | > 50 | 36.7 |  |
| O=C(Nc1ccc(F)c(Cl)c1)N(Cc1n[nH]c2c1CCC2)c1ccc(O)cc1 [Example 114, 3-(3-chloro-4-fluorophenyl)-1-(4-hydroxyphenyl)-1-((1,4,5,6-tetrahydrocyclopenta[c]pyrazol-3-yl)methyl)urea] | 0.014 | 1.6 | 74.6 | 54.5 | 7.9 |  |
| COc1ccc(N(Cc2cc(OC)[nH]n2)C(=O)Nc2ccc(F)c(Cl)c2)cn1 [Example 64, 3-(3-chloro-4-fluorophenyl)-1-((5-methoxy-1H-pyrazol-3-yl)methyl)-1-(6-methoxypyridin-3-yl)urea] | 0.18 | 5.8 | 91.1 | > 100 | 100 |  |
| COc1ccc(N(Cc2n[nH]c3c2CC(C(F)(F)F)CC3)C(=O)Nc2ccc(F)c(Cl)c2)cn1 (stereo not shown) [Example 62, 3-(3-chloro-4-fluorophenyl)-1-(6-methoxypyridin-3-yl)-1-((5-(trifluoromethyl)-4,5,6,7-tetrahydro-1H-indazol-3-yl)methyl)urea] | 0.2 | 6.9 | 100 | 86.7 | 6.5 |  |
| O=C(Nc1ccc(F)c(Cl)c1)N(Cc1n[nH]c2c1CCCC2)c1cc[nH]c(=O)c1 [Example 15, 3-(3-chloro-4-fluorophenyl)-1-(2-oxo-1,2-dihydropyridin-4-yl)-1-((4,5,6,7-tetrahydro-1H-indazol-3-yl)methyl)urea] | 0.31 | 1.4 | 64.7 | > 100 | 84 |  |
| COc1ccc(N(Cc2n[nH]c3c2CC(O)CC3)C(=O)Nc2ccc(F)c(Cl)c2)cn1 (stereo not shown) [Example 48, 3-(3-chloro-4-fluorophenyl)-1-((5-hydroxy-4,5,6,7-tetrahydro-1H-indazol-3-yl)methyl)-1-(6-methoxypyridin-3-yl)urea] | 1.1 | 6.4 | 90 | > 100 |  |  |
| COc1ccc(N(Cc2n[nH]c3c2CCCC3)C(=O)Nc2ccc(F)c(Cl)c2)cc1 [Example 32, 3-(3-chloro-4-fluorophenyl)-1-(4-methoxyphenyl)-1-((4,5,6,7-tetrahydro-1H-indazol-3-yl)methyl)urea] | 0.0099 | 9.4 | 5 | 81.4 | 4.1 |  |
| COC(=O)C1CCc2[nH]nc(CN(C(=O)Nc3ccc(F)c(Cl)c3)c3ccc(OC)nc3)c2C1 (stereo not shown) [Example 53, methyl 3-((3-(3-chloro-4-fluorophenyl)-1-(6-methoxypyridin-3-yl)ureido)methyl)-4,5,6,7-tetrahydro-1H-indazole-5-carboxylate] | > 1.1 |  | 20.1 | > 100 | 58.9 |  |
| COC(=O)c1ccc(N(Cc2n[nH]c3c2CCCC3)C(=O)Nc2ccc(F)c(Cl)c2)cc1 [Example 31, methyl 4-(3-(3-chloro-4-fluorophenyl)-1-((4,5,6,7-tetrahydro-1H-indazol-3-yl)methyl)ureido)benzoate] | 0.41 | 3.3 | 90.4 | > 100 | 91.2 |  |
| O=C(Nc1ccc(F)c(Cl)c1)N(Cc1n[nH]c2c1CCCC2)c1nncs1 [Example 133, 3-(3-chloro-4-fluorophenyl)-1-((4,5,6,7-tetrahydro-1H-indazol-3-yl)methyl)-1-(1,3,4-thiadiazol-2-yl)urea] | 0.11 |  | 5 | 74.2 | 4.3 |  |
| COc1ccc(N(Cc2n[nH]c3c2CC(CO)CC3)C(=O)Nc2ccc(F)c(Cl)c2)cn1 (stereo not shown) [Example 44, 3-(3-chloro-4-fluorophenyl)-1-((5-(hydroxymethyl)-4,5,6,7-tetrahydro-1H-indazol-3-yl)methyl)-1-(6-methoxypyridin-3-yl)urea] | > 1.1 |  | 58 | > 100 | 100 |  |
| O=C(Nc1ccc(F)c(Cl)c1)N(Cc1n[nH]c2c1CCCC2)c1ccc(=O)[nH]c1 [Example 14, 3-(3-chloro-4-fluorophenyl)-1-(6-oxo-1,6-dihydropyridin-3-yl)-1-((4,5,6,7-tetrahydro-1H-indazol-3-yl)methyl)urea] | 0.11 | 7.3 | 14 | > 100 | 95.4 |  |
| COc1ccc(N(Cc2cc[nH]n2)C(=O)Nc2ccc(F)c(Cl)c2)cc1 [Example 34, 1-((1H-pyrazol-3-yl)methyl)-3-(3-chloro-4-fluorophenyl)-1-(4-methoxyphenyl)urea] | > 1.1 |  | 55.2 |  | 92.9 |  |
| O=C(Nc1ccc(F)c(Cl)c1)N(Cc1n[nH]c2c1CCC2)c1ccon1 [Example 134, 3-(3-chloro-4-fluorophenyl)-1-(isoxazol-3-yl)-1-((1,4,5,6-tetrahydrocyclopenta[c]pyrazol-3-yl)methyl)urea] | 0.069 | 3.5 | 84.5 | 70.3 | 6.5 |  |
